Tests used:
[1] = Observed plasma and CSF vancomycin levels (QMS immunoassay); format: in vivo, preterm infants; conditions: median (range)
Source text: CSF WCC, microbiological CSF culture results, CSF protein levels, IV vancomycin and intraventricular vancomycin doses administered, all available CSF vancomycin levels and serum vancomycin levels, dates and times of IV vancomycin doses, intraventricular vancomycin doses, serum and CSF vancomycin levels.
CSF samples for vancomycin levels were taken when the ventricular access device was accessed for routine CSF drainage, as needed for clinical management of hydrocephalus, for the individual baby. Due to this routine practice, the CSF vancomycin levels were taken at random time points. Repeat intraventricular vancomycin dose was administered if the level dropped under the threshold of 10mg/L. The target CSF vancomycin concentration was at least ten times above the breakpoint of MIC for CoNS. This was chosen as these were the principal infecting organisms in the defined neonatal cohort and the study hospital's MIC breakpoint for CoNS is 1 mg/L (EUCAST MIC breakpoint, 4 mg/L) ([EUCAST, 2017]).
The CSF vancomycin measurements were undertaken in the local microbiology laboratory, which is a national referral centre for antibiotic assays, through quantitative microsphere system (QMS® Thermo Scientific)-based immunoassay ([Thermo Scientific. QMS ® Vancomycin (VANCO), 2015]). […]

[2] = system: preterm infants with neonatal ventriculitis; experiment: Time to CSF sterilisation versus model-predicted CSF AUC(0-24) and C average; format: in vivo; conditions: observed trend, 8 preterm infants; paper says the data is too erratic to interpret
Source text: Time to sterilisation was defined as length of time taken for CSF WCC to fall to < 20/mm^3 and simultaneously achieve sterile CSF.
Area under the curve (AUC) predictions were generated for CSF vancomycin from the final model. We explored the relationships between AUC 0-24 and average CSF concentration (C average; defined as AUC(0-t)/t; t = time) and time to sterilisation of CSF.

[3] = system: Staphylococcal epidermidis; conditions: adult CSF samples, MIC 2mg/L; ref Nagl et al., 1999; cited from earlier work
Experimental: (§1) Staphylococci species are the predominant causative organisms in neonatal ventriculitis ([Adams-Chapman et al., 2008]; [Parasuraman et al., 2018]). […] However, IV vancomycin is only able to achieve CSF vancomycin concentrations of 1.1-6mg/L, across the adult and the neonatal population ([Li et al., 2015]; [Beach et a ...

Staphylococcus aureus = conditions: adult CSF samples, MIC 2mg/L; ref Nagl et al., 1999; cited from earlier work
Experimental: as §1

[4] = cited from earlier work
Source text: Staphylococci species are the predominant causative organisms in neonatal ventriculitis ([Adams-Chapman et al., 2008]; [Parasuraman et al., 2018]). […] A more recent work by Li et al highlighted that the disturbance of the blood brain barrier was important in transfer of IV vancomycin into the ...

[5] = cited from earlier work; remark: listed apart in the source
Source text: Staphylococci species are the predominant causative organisms in neonatal ventriculitis ([Adams-Chapman et al., 2008]; [Parasuraman et al., 2018]).

[6] = ref Schilling et al., 2011; cited from earlier work
Source text: The CSF protein was examined as a covariate in this study as 50-55% of vancomycin is protein bound ([Schilling et al., 2011]). As the CSF protein in a preterm baby is higher than that of a term infant, we hypothesised that this may have an effect on the unbound vancomycin in the CSF ([Majumdar et al., 2013]; [De Cock et al., 2017]). However, no significant association was found between VI, CSF protein and CSF vancomycin levels. This is an important finding in the preterm population, to review current intraventricular vancomycin prescribing parameters and practice.

[7] = with CSF vancomycin level ranging from 2.5-230.7 mg/L, preterm infants; ref Parasuraman et al., 2018; cited from earlier work
Experimental: We have previously examined the relationship of 4 different intraventricular vancomycin doses, between 3mg to 15mg, and the CSF vancomycin concentrations, in a small cohort of preterm infants of < 28 weeks gestation ([Parasuraman et al., 2018]). In the four different dose models, the CSF vancomycin levels were adequately maintained at a level of at least ten times above the breakpoint of MIC (>10 mg/L) for coagulase-negative staphylococci (CoNS) ([Parasuraman et al., 2018]).

[8] = cited from earlier work; remark: listed apart in the source
[9] = Population pharmacokinetic (NLME) model of plasma vancomycin after IV dosing
[10] = Population pharmacokinetic (NLME) model of CSF vancomycin after intraventricular dosing
Experimental: Intraventricular vancomycin was given when the ventricular access device was accessed for the routine drainage. Intraventricular vancomycin concentration used was 10 mg/mL, in a sterile preparation, and was given as a slow bolus over 2 minutes. The intraventricular vancomycin was given at the end of the CSF drainage. The ventricular access device was flushed with 1ml of sterile NaCl 0.9% following instillation of the intraventricular vancomycin.
Using a one-compartment modelling approach, CSF compartment was added to the plasma modelling. The CSF model equation, with the incorporated plasma model is given below: dA(p)/dt=−clp/vp×A(p)dA(csf)/dt=−clcsf/vcsf×A(csf) Where p is plasma, cl is clearance, v is volume, A is amount, csf is cerebrospinal fluid, dA(p)/dt is change in plasma concentrations with time and dA(csf)/dt is change in cerebrospinal fluid concentrations with time.
In the first instance, parallel dosing was used, and no transfer was assumed between plasma and CSF. Mass transfer in both directions (plasma to CSF; CSF to plasma) was tested using first-order rate constants. We tested 2 covariates of VI and CSF protein, on CSF clearance and volume and CSF clearance respectively.

## CN[C@H](CC(C)C)C(=O)N[C@H]1C(=O)N[C@@H](CC(N)=O)C(=O)N[C@H]2C(=O)N[C@H]3C(=O)N[C@H](C(=O)N[C@H](C(=O)O)c4cc(O)cc(O)c4-c4cc3ccc4O)[C@H](O)c3ccc(c(Cl)c3)Oc3cc2cc(c3O[C@@H]2O[C@H](CO)[C@@H](O)[C@H](O)[C@H]2O[C@H]2C[C@](C)(N)[C@H](O)[C@H](C)O2)Oc2ccc(cc2Cl)[C@H]1O [vancomycin]
[1]; 8 preterm infants, intraventricular starting doses 3, 5, 10, 15 mg, CSF time after dose 7.39 (0.02-57.37) h, QMS immunoassay
  CSF concentrations: 24.9 (2.5-230.7) mg/L
[1]; preterm infants on concomitant IV vancomycin 15 mg/kg starting dose, plasma time after dose 5.59 (0-14) h
  plasma concentrations: 8.6 (2.2-26.6) mg/L
[2]
  time to CSF sterilisation versus CSF AUC (0-24) and C average: shorter time to sterilisation with higher AUC (0-24) and C average
[3]
  concentration of maximum microbiocidal effect: 5 to 10 mg/L
Staphylococcus aureus
  concentration of maximum microbiocidal effect: 5 to 10 mg/L
[4]; IV vancomycin regimes 2g-3.5g/day, 6 adult patients with ventriculitis, ref Beach et al., 2017
  CSF concentrations achieved: 1.1 to 6 mg/L
[4]; IV vancomycin, ref Li et al., 2015
  mean stable vancomycin concentration in the CSF: 2 mg/L
[4]; across the adult and the neonatal population, ref Li et al., 2015, Beach et al., 2017, Reiter and Doron, 1996
  CSF vancomycin concentrations achieved by IV vancomycin: 1.1 to 6 mg/L
[5]; 5mg intraventricular vancomycin starting dose, neonatal ventriculitis, ref Matsunaga et al., 2015
  CSF vancomycin levels at 72 hours post administration: 16.5 mg/L
[5]; four intraventricular dose models 3mg to 15mg, preterm infants < 28 weeks gestation, at least ten times above the MIC breakpoint for CoNS, ref Parasuraman et al., 2018
  CSF vancomycin levels maintained: > 10 mg/L
[5]; intraventricular vancomycin, preterm infants < 28 weeks gestation, ref Parasuraman et al., 2018
  CSF vancomycin level range: 2.5 to 230.7 mg/L
[6]
  protein bound: 50-55%
[7]
  complications, specifically renal effects and ototoxicity: no confirmed complications
[8]; 10mg intraventricular, ref Pfausler et al., 2003
  serum vancomycin concentration after intraventricular vancomycin administration: below measurable concentration
[8]; attributed to the larger volume of plasma compared to CSF, ref Li et al., 2017
  vancomycin transferred from CSF into plasma: inconsequential
[9]; plasma clearance, final one-compartment model, allometrically scaled to 70 kg, 37 plasma samples from 5 preterm infants on IV vancomycin, value (%RSE)
  CL, Estimate (%RSE): 9.29(5.2) L/h/70 kg
[9]; plasma clearance, non-parametric bootstrap of 1000 samples
  CL, Bootstrap median (95% CI): 9.5 (8.7 – 10.9) L/h/70 kg
[9]; plasma volume of distribution, final one-compartment model, scaled to 70 kg, value (%RSE)
  V, Estimate (%RSE): 54.4(11.5) L/70 kg
[9]; plasma volume of distribution, non-parametric bootstrap of 1000 samples
  V, Bootstrap median (95% CI): 53.5 (47.6 – 119.8) L/70 kg
[10]; CSF clearance, final model, intraventricular vancomycin, 67 CSF samples from 8 preterm infants, value (%RSE)
  CLCSF, Estimate (%RSE): 0.002(12.9) L/h
[10]; CSF clearance, non-parametric bootstrap of 1000 samples
  CLCSF, Bootstrap median (95% CI): 0.002 (0.002 - 0.003) L/h
[10]; CSF volume of distribution, final model, intraventricular vancomycin, value (%RSE)
  VCSF, Estimate (%RSE): 0.109(23.8) L
[10]; CSF volume of distribution, non-parametric bootstrap of 1000 samples
  VCSF, Bootstrap median (95% CI): 0.11 (0.069 - 0.172) L
[10]; first-order transfer rate constants tested in both directions in the model, no significant improvement in fit
  transfer between plasma and CSF: did not demonstrate an appreciable transfer between plasma and CSF

— paper PMC7848885, “Population Pharmacokinetics of Intraventricular Vancomycin in Neonatal Ventriculitis, A Preterm Pilot Study” (European Journal of Pharmaceutical Sciences, 2021)
